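Dose response: 5 concentrations. Exposure: 48 h. Format: 96-well plates. Endpoint: linear interpolation; highest concentration if not reached. GI50 marks 50% less growth.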 Active and inactive are the calls of the source. Rule as the data show it: active = GI50 up to about 1.1 µM and inactive = higher.
Key:
Assay in all cases: inhibition of tumour cell growth, NCI panel, 48 h
A498 = test system: A498
OVCAR-5 = test system: OVCAR-5
Malme-3M = test system: Malme-3M
IGROV-1 = test system: IGROV-1
MDA-N = test system: MDA-N
SK-MEL-2 = test system: SK-MEL-2
RPMI-8226 = test system: RPMI-8226
SF-539 = test system: SF-539
UO-31 = test system: UO-31
HCT-15 = test system: HCT-15
M14 = test system: M14
ACHN = test system: ACHN
T47D = test system: T47D
NCI-H522 = test system: NCI-H522
OVCAR-4 = test system: OVCAR-4
CCRF-CEM = test system: CCRF-CEM
SF-268 = test system: SF-268
MCF7 = test system: MCF7
COLO 205 = test system: COLO 205
UACC-62 = test system: UACC-62
U-251 = test system: U-251
PC-3 = test system: PC-3
HL-60 = test system: HL-60
786-0 = test system: 786-0
TK-10 = test system: TK-10
SK-OV-3 = test system: SK-OV-3
SR = test system: SR
OVCAR-3 = test system: OVCAR-3
SK-MEL-28 = test system: SK-MEL-28
SNB-19 = test system: SNB-19
NCI/ADR-RES = test system: NCI/ADR-RES
HT-29 = test system: HT-29
SW-620 = test system: SW-620
UACC-257 = test system: UACC-257
DU-145 = test system: DU-145
SF-295 = test system: SF-295
NCI-H460 = test system: NCI-H460
NCI-H226 = test system: NCI-H226
MOLT-4 = test system: MOLT-4
HOP-92 = test system: HOP-92
HCC 2998 = test system: HCC 2998
SK-MEL-5 = test system: SK-MEL-5
SN12C = test system: SN12C
NCI-H23 = test system: NCI-H23
BT-549 = test system: BT-549
HOP-62 = test system: HOP-62
RXF 393 = test system: RXF 393
K562 = test system: K562
LOX IMVI = test system: LOX IMVI
SNB-75 = test system: SNB-75
Hs-578T = test system: Hs-578T
MDA-MB-435 = test system: MDA-MB-435
HCT-116 = test system: HCT-116
A549 = test system: A549
KM12 = test system: KM12
EKVX = test system: EKVX
CAKI-1 = test system: CAKI-1
MDA-MB-231 = test system: MDA-MB-231
OVCAR-8 = test system: OVCAR-8

Measured: GI50

S=C(N/N=C(/c1ccccc1)c1ccccn1)Nc1ccccc1Cl
active: OVCAR-5 0.0243 µM | Malme-3M 0.0681 µM | IGROV-1 < 0.0105 µM | MDA-N 0.43 µM | SK-MEL-2 0.148 µM | RPMI-8226 < 0.0448 µM | SF-539 1.11 µM | UO-31 0.163 µM | M14 < 0.0224 µM | ACHN 0.0153 µM | T47D < 0.01 µM | NCI-H522 < 0.0446 µM | OVCAR-4 0.879 µM | CCRF-CEM < 0.01 µM | SF-268 0.179 µM | MCF7 < 0.01 µM | COLO 205 < 0.01 µM | UACC-62 0.101 µM | U-251 0.0158 µM | PC-3 < 0.01 µM | HL-60 < 0.0865 µM | 786-0 < 0.018 µM | TK-10 0.336 µM | SK-OV-3 0.0266 µM | SR < 0.0189 µM | OVCAR-3 < 0.0103 µM | NCI/ADR-RES < 0.01 µM | HT-29 < 0.0227 µM | SW-620 < 0.01 µM | UACC-257 < 0.01 µM | SF-295 0.356 µM | NCI-H460 0.101 µM | NCI-H226 0.0993 µM | MOLT-4 < 0.01 µM | HOP-92 0.226 µM | HCC 2998 0.673 µM | SK-MEL-5 0.121 µM | SN12C 0.168 µM | NCI-H23 < 0.0175 µM | RXF 393 0.124 µM | K562 < 0.215 µM | LOX IMVI 0.0418 µM | MDA-MB-435 0.265 µM | HCT-116 < 0.01 µM | A549 0.0946 µM | KM12 0.0649 µM | EKVX 0.0785 µM | CAKI-1 0.209 µM | MDA-MB-231 < 0.01 µM | OVCAR-8 0.0299 µM
0.0179 µM: HCT-15
inactive: A498 1.13 µM | SK-MEL-28 1.92 µM | SNB-19 4.95 µM | DU-145 2.31 µM | BT-549 3.3 µM | HOP-62 1.77 µM | SNB-75 6.64 µM | Hs-578T 2.49 µM

COC(=O)[C@@H]1Cc2cc(O)c(O)cc2C2(CCN(C)CC2)O1
> 10 µM: HCT-15
inactive: A498 > 10 µM | OVCAR-5 > 10 µM | Malme-3M > 10 µM | IGROV-1 > 10 µM | MDA-N > 10 µM | SK-MEL-2 > 10 µM | RPMI-8226 > 10 µM | SF-539 > 10 µM | M14 > 10 µM | ACHN > 10 µM | T47D > 10 µM | NCI-H522 > 10 µM | OVCAR-4 > 10 µM | CCRF-CEM > 10 µM | SF-268 > 10 µM | MCF7 > 10 µM | COLO 205 > 10 µM | UACC-62 > 10 µM | U-251 > 10 µM | PC-3 > 10 µM | HL-60 > 10 µM | 786-0 > 10 µM | TK-10 > 10 µM | SK-OV-3 > 10 µM | SR > 10 µM | OVCAR-3 > 10 µM | SK-MEL-28 > 10 µM | SNB-19 > 10 µM | NCI/ADR-RES > 10 µM | HT-29 > 10 µM | SW-620 > 10 µM | UACC-257 > 10 µM | DU-145 > 10 µM | SF-295 > 10 µM | NCI-H460 > 10 µM | NCI-H226 > 10 µM | MOLT-4 > 10 µM | HOP-92 > 10 µM | HCC 2998 > 10 µM | SK-MEL-5 > 10 µM | SN12C > 10 µM | NCI-H23 > 10 µM | BT-549 > 10 µM | HOP-62 > 10 µM | RXF 393 > 10 µM | LOX IMVI > 10 µM | SNB-75 > 10 µM | Hs-578T > 10 µM | MDA-MB-435 > 10 µM | HCT-116 > 10 µM | A549 > 10 µM | KM12 > 10 µM | EKVX > 10 µM | CAKI-1 > 10 µM | MDA-MB-231 > 10 µM | OVCAR-8 > 10 µM

c1ccc2c[n+](CCCCCCCCCC[n+]3ccc4ccccc4c3)ccc2c1
inactive: A498 > 10 µM | OVCAR-5 > 5.09 µM | Malme-3M > 10 µM | IGROV-1 > 10 µM | MDA-N > 10 µM | SK-MEL-2 > 10 µM | RPMI-8226 > 10 µM | SF-539 > 10 µM | UO-31 > 10 µM | M14 > 10 µM | ACHN > 10 µM | T47D > 10 µM | NCI-H522 4.17 µM | OVCAR-4 > 10 µM | CCRF-CEM > 10 µM | SF-268 > 10 µM | MCF7 > 10 µM | COLO 205 4.76 µM | UACC-62 > 10 µM | U-251 > 8.59 µM | PC-3 > 7.52 µM | HL-60 > 10 µM | 786-0 > 10 µM | TK-10 > 10 µM | SK-OV-3 > 10 µM | SR > 10 µM | OVCAR-3 > 4.35 µM | SK-MEL-28 7.43 µM | SNB-19 > 10 µM | NCI/ADR-RES > 10 µM | HT-29 > 5.37 µM | SW-620 > 10 µM | UACC-257 3.48 µM | DU-145 > 4.81 µM | SF-295 3.59 µM | NCI-H460 > 10 µM | NCI-H226 > 3.34 µM | HOP-92 > 10 µM | HCC 2998 > 10 µM | SK-MEL-5 2.66 µM | BT-549 2.11 µM | HOP-62 > 10 µM | RXF 393 > 10 µM | K562 2.04 µM | LOX IMVI > 10 µM | SNB-75 3.68 µM | Hs-578T 9.91 µM | MDA-MB-435 > 10 µM | HCT-116 > 10 µM | KM12 > 5.68 µM | EKVX 2.07 µM | CAKI-1 > 10 µM | MDA-MB-231 > 10 µM | OVCAR-8 > 10 µM
> 10 µM: HCT-15
active: SN12C 0.92 µM | NCI-H23 1 µM | A549 0.585 µM

From ChEMBL document CHEMBL1201862, “PubChem BioAssay data set” (2004)
